Experimental findings from patent publication US20130287807A1, “COMPOUNDS FOR TREATING SYMPTOMS ASSOCIATED WITH PARKINSON'S DISEASE” (priority 2008, published 2013) are described below.

Assay [1] concerns p4373. The assay can be described thus: Mimotope vaccination, serum ELISA against p4373. It is filed as in vivo, C57/B16 mice. As to conditions: peptide-KLH vaccines with alum; FIG. 16. The procedure:
(§1) Inhibiting as well as non-inhibiting peptides were coupled to KLH and injected into mice (wildtype C57/B16 mice; subcutaneous injection into the flank) together with an appropriate adjuvant (aluminium hydroxide). Animals were vaccinated 3-6 times in biweekly intervals and sera were taken biweekly as well. Titers to injected peptides, as well as to an irrelevant peptide were determined with every serum. Furthermore, titers against the recombinant human Aβ protein, and against original peptides were determined respectively. In general sera were analysed by reaction against peptides coupled to Bovine Serum Albumin (BSA) and recombinant full length proteins which were immobilised on ELISA plates. Titers were determined using anti mouse IgG specific antibodies. For detailed results see FIGS. 15, 16 and 17 respectively and FIGS. 23, 24 and 25 respectively.
(§2) Female C57/b16 mice, 5-6 mice per group, were subcutaneously immunized with 30 μg peptide coupled to KLH. Control groups were administered original epitope-KLH conjugates respectively. As adjuvant alum was used (always 1 mg per mouse). […] The in vitro ELISA assay to determine the antibody titer was performed with sera of single mice after each vaccination in a two week interval (see FIGS. 15 and 16 respectively). The wells of the ELISA plate were coated with mimotope-BSA conjugate and an irrelevant peptide-BSA conjugate (negative control). […]
A general note: In an ELISA, binding on a coated surface is turned into a signal by an enzyme label.

For assay [2], the system named is p4371. The assay can be described thus: Mimotope vaccination, serum ELISA against p4371. It is filed as in vivo, C57/B16 mice. The note with it: peptide-KLH vaccines with alum; FIG. 16. The procedure: as §1, §2

Square brackets hold non-standard residues; d marks the D form. Ends that are not written are not given here. pGlu = O=C1CC[C@@H](C(=O)O)N1

In the case of EFRHDS-C (EFRHDSC) [p4371], in assay [1], the “immune response / titers against p4373” value is “mount relevant titers”. With “p(E)FRHDS-C ([pGlu]FRHDSC) [p4373, non-mimotope peptide, pyroglutamate-modified aa3-8 of Aβ]”, the “immune response / titers against p4371” value in assay [2] is recorded as “mount relevant titers”.
